Experimental data as given in article PMC11984924, “Dipeptidic Phosphonates: Potent Inhibitors of Pseudomonas aeruginosa Elastase B Showing Efficacy in a Murine Keratitis Model” (Advanced Science, 2025).

Key:
HEK293 cells = test: Cytotoxicity HEK293; assay type: cell-based; conditions: Homo sapiens, HEK293, read-out: HEK293 % inhibition at 100 µM (metabolic activity), 48 hours
Description: HepG2 (human hepatocellular carcinoma), HEK293 (human embryonal kidney) and A549
(human lung carcinoma) cells (2x10^5 cells per well) were seeded in 24-well in flat-bottomed
plates. Culturing of cells, incubations and OD measurements were performed as described
previously with small modifications.[14] Twenty-four hours after seeding the cells the incubation
was started by the addition of compounds in a final DMSO concentration of 1%. The living cell
mass was determined after 48 hours in a PHERAstar microplate reader (BMG labtech,
Ortenberg, Germany). Two independent measurements were performed for each compound.

MMP-2 = target: T1, MMP-2 (Homo sapiens, UniProt P08253); test: MMP-2 inhibition (off-target); assay type: biochemical; conditions: read-out: MMP-2 % inhibition at 100 µM
T1 construct: purchased AnaSpec (Fremont, CA, USA)
T1 sequence (P08253 110-660): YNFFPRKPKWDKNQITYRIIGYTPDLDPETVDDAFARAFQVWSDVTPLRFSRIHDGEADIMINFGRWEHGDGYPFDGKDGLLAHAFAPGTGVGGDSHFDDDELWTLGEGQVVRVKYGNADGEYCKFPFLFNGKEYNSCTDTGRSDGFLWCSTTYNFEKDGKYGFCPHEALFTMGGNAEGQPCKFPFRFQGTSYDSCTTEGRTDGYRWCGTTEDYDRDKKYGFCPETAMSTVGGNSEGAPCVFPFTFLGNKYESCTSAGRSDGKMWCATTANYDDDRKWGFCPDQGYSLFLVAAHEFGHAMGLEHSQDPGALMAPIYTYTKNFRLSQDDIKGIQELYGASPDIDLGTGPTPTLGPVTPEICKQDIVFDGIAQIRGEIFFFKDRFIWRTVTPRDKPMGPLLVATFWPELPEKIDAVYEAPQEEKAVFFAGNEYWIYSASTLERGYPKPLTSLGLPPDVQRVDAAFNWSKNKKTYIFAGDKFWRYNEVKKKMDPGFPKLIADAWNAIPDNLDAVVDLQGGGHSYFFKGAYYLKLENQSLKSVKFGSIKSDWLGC
Description: 3.1 In vitro inhibition assays […]
(§1) MMPs, TACE). All in vitro inhibition assays were performed as described previously.[10] TACE inhibitor screening kits were purchased from Sigma-Aldrich (Saint Louis, MO). MMPs along with the SensoLyte 520 Generic MMP Activity Kit Fluorimetric were purchased from AnaSpec (Fremont, CA, USA). The assays were performed according to the guidelines of the respective manufacturer. Fluorescence signals were measured using a CLARIOstar plate reader (BMG Labtech, Ortenberg, Germany). […]
(§2) 3.8 Test against zinc metalloproteases MMP1–3 and TACE (ADAM17), and testing of
as §1, with “We selected a panel of human off -targets, including three human matrix metalloproteases (MMP-1, -2 and -3) and TACE (ADAM-17). These” for “MMPs, TACE). All in vitro inhibition”, “previously.[3] The” for “previously.[10]”, “kit was” for “kits were”, “Sigma -Aldrich” for “Sigma-Aldrich”
(§3) Table S6: Percent (%) inhibition of three MMPs (1 –3) and TACE (ADAM17) in presence of selected LasB inhibitors at 100 µM. Results are means and SD of at least two independent experiments. […]
(§4) Compound [% inhibition at [% inhibition at [% inhibition at [% inhibition at 100

Plasma stability, mouse = assay type: in vitro ADME; conditions: CD-1, read-out: Plasma t1/2 Mouse
Description: To determine stability in plasma, the compound (1 µM) was incubated with pooled CD -1 […]
mouse/human/Wistar rat or Göttingen minipig plasma (Neo Biotech, Nanterre, France).
Samples were taken by mixing aliquots with 4 volumes of acetonitrile containing internal […]
standard (125 nM diphenhydramine). The plasma stability of procain, propantheline and diltiazem were determined in parallel to confirm the enzymatic activity. Samples were stored […]
on ice until the end of the incubation and precipitated protein was removed by centrifugation […]
(15 min, 4 °C, 4,000 g, two centrifugation steps). Concentration of the remaining test compound at the different time points was analyzed by HPLC-MS/MS (TSQ Quantum Access MAX, […]
Thermo Fisher, Dreieich, Germany) and used to determine half-life (t1/2).
Table S2: Additional in vitro ADMET data for selected dipeptides. n.d.: not determined.
Kinetic Liver S9 Clint [µL/mg/min] Plasma t1/2 [min] LogD7.4 […]
pH 7.4 [µM] Mouse Human Mouse Human

TACE (ADAM17) = target: T2, TACE (ADAM17) (Homo sapiens, UniProt P78536); test: TACE (ADAM17) inhibition (off-target); assay type: biochemical; conditions: read-out: TACE (ADAM17) % inhibition at 100 µM
T2 construct: purchased Sigma-Aldrich (Saint Louis, MO)
T2 sequence (P78536 215-824): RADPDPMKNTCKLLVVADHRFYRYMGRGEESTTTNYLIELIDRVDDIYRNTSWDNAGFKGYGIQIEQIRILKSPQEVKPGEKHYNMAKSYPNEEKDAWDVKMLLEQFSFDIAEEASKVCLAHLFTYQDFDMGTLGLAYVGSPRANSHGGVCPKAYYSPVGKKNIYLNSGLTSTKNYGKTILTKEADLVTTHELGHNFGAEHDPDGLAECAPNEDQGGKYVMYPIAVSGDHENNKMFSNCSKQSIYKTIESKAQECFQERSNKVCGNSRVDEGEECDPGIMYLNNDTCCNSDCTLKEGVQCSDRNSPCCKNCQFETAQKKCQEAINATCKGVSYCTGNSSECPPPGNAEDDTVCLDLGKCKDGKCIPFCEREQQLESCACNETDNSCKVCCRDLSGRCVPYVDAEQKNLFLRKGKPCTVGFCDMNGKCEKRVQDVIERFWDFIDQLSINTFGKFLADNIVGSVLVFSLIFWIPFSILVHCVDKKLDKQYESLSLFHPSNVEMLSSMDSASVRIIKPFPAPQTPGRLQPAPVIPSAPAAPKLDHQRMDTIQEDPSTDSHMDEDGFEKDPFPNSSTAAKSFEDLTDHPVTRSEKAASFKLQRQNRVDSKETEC
Description: (§5) 3.1 In vitro inhibition assays
as §1, with “LasB was expressed and purified as described previously.[3] In vitro inhibition assays (LasB, MMPs,” for “MMPs,”
as §2
as §1, with “We selected a panel of human off -targets, including three human matrix metalloproteases (MMP-1, -2 and -3) and TACE (ADAM-17). These” for “MMPs, TACE). All in vitro inhibition”, “previously.[3] The” for “previously.[10]”, “kit was” for “kits were”, “Sigma -Aldrich” for “Sigma-Aldrich”
as §3, §4

MMP-1 = target: T3, MMP-1 (Homo sapiens, UniProt P03956); test: MMP-1 inhibition (off-target); assay type: biochemical; conditions: read-out: MMP-1 % inhibition at 100 µM
T3 construct: purchased AnaSpec (Fremont, CA, USA)
T3 sequence (P03956 100-469): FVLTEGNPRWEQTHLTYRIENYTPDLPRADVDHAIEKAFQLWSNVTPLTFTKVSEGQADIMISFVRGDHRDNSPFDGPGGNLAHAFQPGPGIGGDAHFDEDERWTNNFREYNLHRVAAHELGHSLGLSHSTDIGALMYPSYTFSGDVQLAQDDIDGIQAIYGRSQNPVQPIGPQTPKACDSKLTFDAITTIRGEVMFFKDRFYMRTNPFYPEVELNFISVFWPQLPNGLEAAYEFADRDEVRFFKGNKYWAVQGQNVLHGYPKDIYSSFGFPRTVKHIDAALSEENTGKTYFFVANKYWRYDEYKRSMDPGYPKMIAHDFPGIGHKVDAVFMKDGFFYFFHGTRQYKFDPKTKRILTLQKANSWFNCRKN
Description: as §5
as §1, with “LasB was expressed and purified as described previously.[3] In vitro inhibition assays (LasB, MMPs,” for “MMPs,”
as §2
as §1, with “We selected a panel of human off -targets, including three human matrix metalloproteases (MMP-1, -2 and -3) and TACE (ADAM-17). These” for “MMPs, TACE). All in vitro inhibition”, “previously.[3] The” for “previously.[10]”, “kit was” for “kits were”, “Sigma -Aldrich” for “Sigma-Aldrich”
as §3, §4

Row | Structure (SMILES) | inhibition at 100 µM (HEK293 cells) [%] | inhibition at 100 µM (MMP-2) [%] | half-life at 1 µM (Plasma stability, mouse) [h] | inhibition at 100 µM (TACE (ADAM17)) [%] | inhibition at 100 µM (MMP-1) [%]
1 | CC(=O)c1ccc(NC(=O)[C@@H](NC(=O)[C@@H](CC(C)C)P(=O)(O)O)C(C)C)cc1 [(R)‐30] | < 10 | < 10 | > 2.5 | 13 ± 2 | < 10
2 | CC(C)C[C@H](C(=O)N[C@H](C(=O)Nc1ccc(-n2ccnc2)cc1)C(C)C)P(=O)(O)O [(R)‐36] | 11 ± 9 | < 10 | > 2.5 | < 10 | < 10
3 | CC(C)CC(C(=O)N[C@H](C(=O)Nc1ccc(Cl)c(Cl)c1)C1CCC1)P(=O)(O)O (stereo partly drawn) [compound 13] | < 10 | < 10 | > 2.5 | < 10 | < 10
4 | CC(C)CC(C(=O)N[C@H](C(=O)Nc1ccc(Cl)c(Cl)c1)C(C)C)P(=O)(O)O (stereo partly drawn) [compound 9] | < 10 | < 10 | > 2.5 | < 10 | 13 ± 1
5 | CC(C)CC(C(=O)N[C@H](C(=O)Nc1ccc(Cl)c(Cl)c1)C1CCCCC1)P(=O)(O)O (stereo partly drawn) [compound 14] | 51 ± 4 | < 10 | > 2.5 | < 10 | < 10
6 | CC(=O)c1ccc(NC(=O)[C@@H](NC(=O)C(CC(C)C)P(=O)(O)O)C(C)C)cc1 (stereo partly drawn) [compound 30] | < 10 | < 10 | > 2.5 | 13 ± 4 | < 10
